Measured values from US8192962B2, “Processes for detecting toxic substances” (Daikin Industries, Ltd., priority 2001, dated 2012).

Tested on: Detoxification protein genes
Experiment: DNA chip mRNA expression in yeast, detoxification protein genes (Table 8)
Assay type: cell-based, Saccharomyces cerevisiae S288C
Method: Yeast (Saccharomyces cerevisiae S288C (α SUC2mal mel gap2 CUP1)) were incubated at 25° C. on YPD medium (yeast extract 1%, polypepton 2%, glucose 2%). One of toxic chemical substances was added to the cells at logarithmic growth phase, and the cells were further incubated for two hours. Cells were cultured without any chemical substance in the same condition, and were used as control. Concentrations of the chemical substances were defined to inhibit the growth of the yeast but not lead to death.
After completion of the incubation, the culture was centrifuged to collect the cells. To the cells, sodium acetate buffer (50 mM sodium acetate, 10 mM EDTA, 1% SDS) was added, and the mixture was shaken at 65° C. for five minutes, followed by returning to room temperature, and obtaining the supernatant, of which the procedures were repeated two times. To the supernatant, ½ amount of a solution of phenol/chloroform was added, and the mixture was centrifuged to give a supernatant, which was added with an equal amount of chloroform, and the mixture was centrifuged to give a supernatant. To the supernatant, an equal amount of isopropanol containing 0.3 M sodium acetate was added, and the mixture was allowed to stand at room temperature for 30 minutes, after which the mixture was centrifuged to give a sediment of the whole RNAs. Seventy % ethanol was added to the sediment, and the mixture was again centrifuged to give a sediment, which was then dried and dissolved in water. mRNA was isolated from the whole RNAs as followings. In view of the fact that a poly A chain is attached to the 3′ terminus of mRNA, a polynucleotide having a poly T structure which was immobilized on the surface of latex beads was used to trap the mRNA, and then the mRNA was washed and eluted with spine column (Oligotex-dT30<Super>mRNA Purification Kit, Takara). Reverse transcription of the mRNA was conducted with a reverse transcriptase (Super Script II Reverse Transcriptase; catalogue No. 18064-014, GibcoBRL) using fluorescence-labeled nucleotides to give cDNAs that were introduced with Cy3-dUTP or Cy5-dUTP during the reverse transcription.
The labeled cDNAs were dissolved in TE buffer (10mM Tris-HCl/1 mM EDTA, pH8.0), and the solution was dropped on the DNA chip containing the whole genes of yeast (DNA Chip Research Inc. Japan) so that the cDNAs were hybridized on the DNA chip at 65° C. for over 12 hours. The fluoresces intensity of the DNA chip was read with a scanner, and the ratio relative to the fluorescence intensity resulting from the absence of chemical substance was estimated as the following, which is shown in Tables 1 to 9: […]

In the case of `CCCCC[C@H](O)CC(=O)CCc1ccc(O)c(OC)c1` [(13), gingerol], the “The level of expressed mRNA in the presence of chemical substance/The level of expressed mRNA in the absence of chemical substance” value (yeast gene YBL064C) is reported as 4.1, the “The level of expressed mRNA in the presence of chemical substance/The level of expressed mRNA in the absence of chemical substance” value (yeast gene YBR244W) is reported as 0.4 and the “The level of expressed mRNA in the presence of chemical substance/The level of expressed mRNA in the absence of chemical substance” value (yeast gene YBR293W) is reported as 3.0. The “The level of expressed mRNA in the presence of chemical substance/The level of expressed mRNA in the absence of chemical substance” value (yeast gene YDL168W) was 1.3, the “The level of expressed mRNA in the presence of chemical substance/The level of expressed mRNA in the absence of chemical substance” value (yeast gene YDR256C) was 1.1 and the “The level of expressed mRNA in the presence of chemical substance/The level of expressed mRNA in the absence of chemical substance” value (yeast gene YDR453C) was 1.4. The “The level of expressed mRNA in the presence of chemical substance/The level of expressed mRNA in the absence of chemical substance” value (yeast gene YDR538W) was 0.7, the “The level of expressed mRNA in the presence of chemical substance/The level of expressed mRNA in the absence of chemical substance” value (yeast gene YEL027W) was 0.7 and the “The level of expressed mRNA in the presence of chemical substance/The level of expressed mRNA in the absence of chemical substance” value (yeast gene YER185W) was 2.1. For the same compound, the “The level of expressed mRNA in the presence of chemical substance/The level of expressed mRNA in the absence of chemical substance” value (yeast gene YFL050C) was 1.2, the “The level of expressed mRNA in the presence of chemical substance/The level of expressed mRNA in the absence of chemical substance” value (yeast gene YGR088W) was 1.2 and the “The level of expressed mRNA in the presence of chemical substance/The level of expressed mRNA in the absence of chemical substance” value (yeast gene YGR138C) was 0.6. For the same compound, the “The level of expressed mRNA in the presence of chemical substance/The level of expressed mRNA in the absence of chemical substance” value (yeast gene YGR209C) was 1.4, the “The level of expressed mRNA in the presence of chemical substance/The level of expressed mRNA in the absence of chemical substance” value (yeast gene YHR008C) was 1.2 and the “The level of expressed mRNA in the presence of chemical substance/The level of expressed mRNA in the absence of chemical substance” value (yeast gene YHR048W) was 1.1. The “The level of expressed mRNA in the presence of chemical substance/The level of expressed mRNA in the absence of chemical substance” value (yeast gene YIR002C) was 1.2, the “The level of expressed mRNA in the presence of chemical substance/The level of expressed mRNA in the absence of chemical substance” value (yeast gene YJL101C) was 1.0 and the “The level of expressed mRNA in the presence of chemical substance/The level of expressed mRNA in the absence of chemical substance” value (yeast gene YKL064W) was 1.6. The “The level of expressed mRNA in the presence of chemical substance/The level of expressed mRNA in the absence of chemical substance” value (yeast gene YKR066C) was 0.6, the “The level of expressed mRNA in the presence of chemical substance/The level of expressed mRNA in the absence of chemical substance” value (yeast gene YKR106W) was 1.4 and the “The level of expressed mRNA in the presence of chemical substance/The level of expressed mRNA in the absence of chemical substance” value (yeast gene YLL028W) was 4.1. The “The level of expressed mRNA in the presence of chemical substance/The level of expressed mRNA in the absence of chemical substance” value (yeast gene YLL057C) was 1.4, the “The level of expressed mRNA in the presence of chemical substance/The level of expressed mRNA in the absence of chemical substance” value (yeast gene YLR046C) was 1.2 and the “The level of expressed mRNA in the presence of chemical substance/The level of expressed mRNA in the absence of chemical substance” value (yeast gene YML028W) was 1.6. The “The level of expressed mRNA in the presence of chemical substance/The level of expressed mRNA in the absence of chemical substance” value (yeast gene YMR015C) was 0.4, the “The level of expressed mRNA in the presence of chemical substance/The level of expressed mRNA in the absence of chemical substance” value (yeast gene YMR038C) was 1.7 and the “The level of expressed mRNA in the presence of chemical substance/The level of expressed mRNA in the absence of chemical substance” value (yeast gene YNL239W) was 3.6. The “The level of expressed mRNA in the presence of chemical substance/The level of expressed mRNA in the absence of chemical substance” value (yeast gene YNL241C) was 4.9, the “The level of expressed mRNA in the presence of chemical substance/The level of expressed mRNA in the absence of chemical substance” value (yeast gene YNL259C) was 1.1 and the “The level of expressed mRNA in the presence of chemical substance/The level of expressed mRNA in the absence of chemical substance” value (yeast gene YOL158C) was 1.4. For the same compound, the “The level of expressed mRNA in the presence of chemical substance/The level of expressed mRNA in the absence of chemical substance” value (yeast gene YOR251C) was 1.0, the “The level of expressed mRNA in the presence of chemical substance/The level of expressed mRNA in the absence of chemical substance” value (yeast gene YOR273C) was 2.6 and the “The level of expressed mRNA in the presence of chemical substance/The level of expressed mRNA in the absence of chemical substance” value (yeast gene YPR200C) was 0.6.
